Earlier results in patent US9817001B2, “Methods for determining LDL cholesterol treatment” (Boston Heart Diagnostics Corporation, priority 2008, dated 2017).

System: HDL particle profile (α-1 HDL, preβ-1 HDL)
Details: for effect on preβ-1 HDL level: by decreasing CETP activity; for effect on apoA-I kinetics: in vivo

Row | SMILES | effect on preβ-1 HDL level | effect on apoA-I kinetics | statin effectiveness to change the HDL particle profile beneficially (statin therapy, decreasing pre-β1 and increasing α-1)
1 | CC(C)c1nc(N(C)S(C)(=O)=O)nc(-c2ccc(F)cc2)c1/C=C/[C@@H](O)C[C@@H](O)CC(=O)O [Rosuvastatin, rosuvastatin] | significantly decrease | little or no effect | 
2 | CC(C)c1c(C(=O)Nc2ccccc2)c(-c2ccccc2)c(-c2ccc(F)cc2)n1CC[C@@H](O)C[C@@H](O)CC(=O)O [atorvastatin] | significantly decrease | little or no effect | 
3 | CC[C@H](C)C(=O)O[C@H]1C[C@@H](C)C=C2C=C[C@H](C)[C@H](CC[C@@H]3C[C@@H](O)CC(=O)O3)[C@H]21 [lovastatin] |  |  | almost no change
